Source: ChEMBL document CHEMBL1201862, “PubChem BioAssay data set” (2004)
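Protocol summary: plate cells (96-well), add compound at 5 concentrations, incubate 48 h, interpolate endpoints linearly. At the GI50, growth is halved.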 The source made the active and inactive calls. Cut-off read from the data, not from the text of the source: active = GI50 up to about 1.1 µM and inactive = higher.

Legend:
Test in all cases: growth of human tumour cells (NCI), 48 h
CAKI-1 = system: CAKI-1
SNB-19 = system: SNB-19
SK-OV-3 = system: SK-OV-3
HCT-15 = system: HCT-15
SNB-75 = system: SNB-75
Malme-3M = system: Malme-3M
UACC-257 = system: UACC-257
SF-268 = system: SF-268
MOLT-4 = system: MOLT-4
MDA-MB-435 = system: MDA-MB-435
HCT-116 = system: HCT-116
T47D = system: T47D
HL-60 = system: HL-60
OVCAR-8 = system: OVCAR-8
MCF7 = system: MCF7
MDA-MB-231 = system: MDA-MB-231
UO-31 = system: UO-31
HOP-92 = system: HOP-92
A498 = system: A498

Compound	GI50 (CAKI-1)	GI50 (SNB-19)	GI50 (SK-OV-3)	GI50 (HCT-15) [µM]	GI50 (SNB-75)	GI50 (Malme-3M)	GI50 (UACC-257)	GI50 (SF-268)	GI50 (MOLT-4)	GI50 (MDA-MB-435)	GI50 (HCT-116)	GI50 (T47D)	GI50 (HL-60)	GI50 (OVCAR-8)	GI50 (MCF7)	GI50 (MDA-MB-231)	GI50 (UO-31)	GI50 (HOP-92)	GI50 (A498)
CC(=O)Nc1nc(NC(C)=O)c2nc(CO)[nH]c2n1	> 100 µM (inactive)	> 100 µM (inactive)	> 100 µM (inactive)	> 100	> 100 µM (inactive)	> 100 µM (inactive)	> 100 µM (inactive)	> 100 µM (inactive)	> 100 µM (inactive)	> 100 µM (inactive)	> 100 µM (inactive)	> 100 µM (inactive)	> 100 µM (inactive)	> 100 µM (inactive)	> 100 µM (inactive)	> 100 µM (inactive)	> 100 µM (inactive)	> 100 µM (inactive)	> 100 µM (inactive)
N#CC(C#N)=Cn1c(=S)[nH]c2ccc([N+](=O)[O-])cc21	71.4 µM (inactive)	> 100 µM (inactive)	> 100 µM (inactive)	–	15.2 µM (inactive)	> 100 µM (inactive)	> 100 µM (inactive)	> 100 µM (inactive)	> 100 µM (inactive)	> 100 µM (inactive)	> 100 µM (inactive)	> 100 µM (inactive)	> 100 µM (inactive)	> 100 µM (inactive)	> 100 µM (inactive)	68.7 µM (inactive)	> 100 µM (inactive)	> 100 µM (inactive)	> 100 µM (inactive)
CCOc1ccc(Nc2nc(N)nc(N)c2N=O)cc1	10.9 µM (inactive)	61 µM (inactive)	> 100 µM (inactive)	37.7	28.1 µM (inactive)	49 µM (inactive)	54 µM (inactive)	89.7 µM (inactive)	17.6 µM (inactive)	52.4 µM (inactive)	> 100 µM (inactive)	19.2 µM (inactive)	> 100 µM (inactive)	51.1 µM (inactive)	38.4 µM (inactive)	40 µM (inactive)	29.9 µM (inactive)	17.9 µM (inactive)	> 100 µM (inactive)
O=C1/C(=C\c2ccc(-c3ccc(Cl)cc3Cl)o2)SC2NC(COc3ccc(Cl)cc3)=NN12 (centres undefined)	51.1 µM (inactive)	53.7 µM (inactive)	88.3 µM (inactive)	34.9	> 100 µM (inactive)	42.2 µM (inactive)	21.1 µM (inactive)	36 µM (inactive)	31.8 µM (inactive)	38.7 µM (inactive)	48.4 µM (inactive)	27.2 µM (inactive)	22.5 µM (inactive)	38.3 µM (inactive)	33.4 µM (inactive)	44 µM (inactive)	> 100 µM (inactive)	26.5 µM (inactive)	2.19 µM (inactive)
COc1ccc2c(C)cc(N/N=C(\C)C=O)nc2c1	14.4 µM (inactive)	13 µM (inactive)	11.2 µM (inactive)	3.78	13.6 µM (inactive)	12 µM (inactive)	15.8 µM (inactive)	13.8 µM (inactive)	4.51 µM (inactive)	10.8 µM (inactive)	11 µM (inactive)	15.5 µM (inactive)	–	11.5 µM (inactive)	8.79 µM (inactive)	9.33 µM (inactive)	13.2 µM (inactive)	10.5 µM (inactive)	14.5 µM (inactive)
CN1CCN(CCCCN2c3ccccc3Sc3ccc(C(=O)c4ccccc4)cc32)CC1	1.44 µM (inactive)	1.91 µM (inactive)	1.57 µM (inactive)	1.67	1.26 µM (inactive)	2.34 µM (inactive)	1.75 µM (inactive)	2.23 µM (inactive)	1.71 µM (inactive)	1.73 µM (inactive)	1.82 µM (inactive)	5.65 µM (inactive)	1.57 µM (inactive)	1.5 µM (inactive)	1.91 µM (inactive)	1.9 µM (inactive)	2.65 µM (inactive)	1.82 µM (inactive)	1.56 µM (inactive)
C/C=C1/CN2CCC34c5ccccc5N(C)C23C2CC1C4(C(=O)OC)C(O)O2 (centres undefined)	> 100 µM (inactive)	> 100 µM (inactive)	> 100 µM (inactive)	> 100	> 100 µM (inactive)	–	> 100 µM (inactive)	> 100 µM (inactive)	> 100 µM (inactive)	> 100 µM (inactive)	> 100 µM (inactive)	> 100 µM (inactive)	> 100 µM (inactive)	> 100 µM (inactive)	> 100 µM (inactive)	> 100 µM (inactive)	> 100 µM (inactive)	> 100 µM (inactive)	> 100 µM (inactive)
CN(/N=C/c1ccccn1)C1=NCCN1	> 100 µM (inactive)	> 100 µM (inactive)	> 100 µM (inactive)	> 100	> 100 µM (inactive)	> 100 µM (inactive)	> 100 µM (inactive)	> 100 µM (inactive)	> 100 µM (inactive)	> 100 µM (inactive)	> 100 µM (inactive)	> 100 µM (inactive)	> 100 µM (inactive)	> 100 µM (inactive)	> 100 µM (inactive)	> 100 µM (inactive)	> 100 µM (inactive)	> 100 µM (inactive)	> 100 µM (inactive)
Cc1ccc(NC(=O)CC(=O)N2N=C(N(c3ccccc3)c3ccccc3)CC2c2ccccc2)cc1 (centres undefined)	> 100 µM (inactive)	> 100 µM (inactive)	> 100 µM (inactive)	> 100	91.4 µM (inactive)	–	> 100 µM (inactive)	75.7 µM (inactive)	> 100 µM (inactive)	> 100 µM (inactive)	> 100 µM (inactive)	> 100 µM (inactive)	> 100 µM (inactive)	> 100 µM (inactive)	> 100 µM (inactive)	> 100 µM (inactive)	> 100 µM (inactive)	> 100 µM (inactive)	> 100 µM (inactive)
COc1ccc(-c2cc(C3CC3)nc(SCC(=O)O)c2C#N)cc1	> 100 µM (inactive)	> 100 µM (inactive)	56.2 µM (inactive)	65.8	> 100 µM (inactive)	–	> 100 µM (inactive)	> 100 µM (inactive)	60.3 µM (inactive)	> 100 µM (inactive)	> 100 µM (inactive)	> 100 µM (inactive)	54.5 µM (inactive)	> 100 µM (inactive)	94.4 µM (inactive)	> 100 µM (inactive)	1.85 µM (inactive)	82.6 µM (inactive)	> 100 µM (inactive)
Cc1c2c(Cl)c3c(c(Cl)c2c(C)c2c(Cl)c4c(c(Cl)c12)C(c1ccccc1)(c1ccccc1)C4(c1ccccc1)c1ccccc1)C(c1ccccc1)(c1ccccc1)C3(c1ccccc1)c1ccccc1	> 100 µM (inactive)	> 100 µM (inactive)	> 100 µM (inactive)	> 100	> 100 µM (inactive)	> 100 µM (inactive)	> 100 µM (inactive)	> 100 µM (inactive)	> 100 µM (inactive)	> 100 µM (inactive)	> 100 µM (inactive)	> 100 µM (inactive)	–	> 100 µM (inactive)	> 100 µM (inactive)	> 100 µM (inactive)	> 100 µM (inactive)	> 100 µM (inactive)	> 100 µM (inactive)
CCOc1ccc(/N=N/C2C(=O)N(C(=O)CC(=O)Nc3ccccc3)N=C2C)cc1 (centres undefined)	55.3 µM (inactive)	36.5 µM (inactive)	–	57.4	23.1 µM (inactive)	> 100 µM (inactive)	> 100 µM (inactive)	61.8 µM (inactive)	36.5 µM (inactive)	5.07 µM (inactive)	29.1 µM (inactive)	30.8 µM (inactive)	33.8 µM (inactive)	> 100 µM (inactive)	54.8 µM (inactive)	39.8 µM (inactive)	> 100 µM (inactive)	28.5 µM (inactive)	79.4 µM (inactive)
CC(=O)O[C@H]1C[C@@H](O[C@H]2[C@@H](O)C[C@H](O[C@H]3[C@@H](O)C[C@H](O[C@H]4CC[C@@]5(C)[C@H](CC[C@@H]6[C@@H]5C[C@@H](O)[C@]5(C)[C@@H](C7=CC(=O)OC7)CC[C@]65O)C4)O[C@@H]3C)O[C@@H]2C)O[C@H](C)[C@H]1O.CC(=O)O[C@H]1[C@@H](O)C[C@@H](O[C@H]2[C@@H](O)C[C@H](O[C@H]3[C@@H](O)C[C@H](O[C@H]4CC[C@@]5(C)[C@H](CC[C@@H]6[C@@H]5C[C@@H](O)[C@]5(C)[C@@H](C7=CC(=O)OC7)CC[C@]65O)C4)O[C@@H]3C)O[C@@H]2C)O[C@@H]1C	0.0308 µM (active)	0.0637 µM (active)	0.0385 µM (active)	0.0308	0.0483 µM (active)	0.0236 µM (active)	0.0541 µM (active)	0.0236 µM (active)	0.0167 µM (active)	0.0443 µM (active)	0.0262 µM (active)	0.0455 µM (active)	0.0382 µM (active)	0.0378 µM (active)	0.0415 µM (active)	0.162 µM (active)	0.0486 µM (active)	0.0561 µM (active)	0.0386 µM (active)
O=C(O)c1cc(=O)c2c(OCC(O)COc3cccc4oc(C(=O)O)cc(=O)c34)cccc2o1	> 100 µM (inactive)	> 100 µM (inactive)	> 72.9 µM (inactive)	> 100	> 61 µM (inactive)	> 75.3 µM (inactive)	> 80.4 µM (inactive)	> 100 µM (inactive)	> 87.7 µM (inactive)	> 67.5 µM (inactive)	> 74.8 µM (inactive)	> 100 µM (inactive)	> 100 µM (inactive)	99.5 µM (inactive)	> 85.1 µM (inactive)	> 81.1 µM (inactive)	> 100 µM (inactive)	> 63.8 µM (inactive)	> 59 µM (inactive)
